From US20100316677A1, “USE OF BAMBOO LEAF TOTAL FLAVONES IN THE PREPARATION OF MEDICINE AND HEALTH FOOD FOR PREVENTION AND TREATMENT OF PROSTATIC DISEASES” (ZHEJIANG UNIVERSITY (HANGZHOU) LEAF BIO-TECHNOLOGY CO., LTD., priority 2003, published 2010)

Assays:
[1] = test system: prostatic hyperplasia caused by testosterone propionate; experiment: prostatic hyperplasia caused by testosterone propionate; type: in vivo, ICR mice; conditions: testosterone propionate mice, 0.5 mg/kg sc once every 3 days, 5 times
Description: Randomly assign ICR mice, male, body weight 18-21g, into 7 groups, 10-11 mice in each group: (1) controlled group: water of equal volume, 0.8 mL/20 g, ig; (2) model group: 0.8 mL/20 g water of equal volume, ig; (3) estradiol group: estradiol 0.5 mg/kg, sc, once every 3 days, for 5 times; (4) high-dose group: EOB-f01 400 mg/kg ig; (5) moderate-dose group: EOB-f01 200 mg/kg, ig; (6) low-dose group: EOB-f01 100 mg/kg, ig. Once per day, for 14 days. Except the controlled group (1), various groups (2)-(6) with testosterone propionate 5 mg/mL per day, sc, for 14 d. On the fifteenth day, sacrifice the mice, anatomize them, take and weigh the abdominal, side, and back parts of the prostate, and evaluate anti-hyperplasia effects of EOB-f01.

[2] = test system: growth of the prostate and accessorial sex organs; experiment: growth of the prostate and the accessorial sex organs of young mice; type: in vivo, ICR young male mice; conditions: 0.5 mg/kg sc once every 3 days, 5 times
Description: Assign ICR young male mice, body weight 10-12 g, into groups according to their body weight, 10-11 mice in each group: (1) controlled group: water of equal volume, 0.8 mL/20 g, ig; (2) estradiol group: estradiol 0.5 mg/kg, sc, once every 3 days, for 5 times; (3) high-dose group: EOB-f01 400 mg/kg, ig; (4) moderate-dose group: EOB-f01 200 mg/kg, ig; (5) low-dose group: EOB-f01 100 mg/kg, ig. Once per day, for 14 days. On the fifteenth day, sacrifice the mice, anatomize and weigh the abdominal, side, and back parts of the prostate, and seminal vesicle, testis, and elevator ani muscle.

[3] = test system: swelling of ear auricle caused by xylene; experiment: swelling of ear auricle of mice caused by xylene; type: in vivo; conditions: 10 mg/kg ig once, blank control 11.4 ± 4.9
Description: Assign the mice into 5 groups according to their body weight, 10 mice in each group, as 2.1 section. Give the mice once per day through gastric irrigation (ig), for 7 days (indomethacin, given only once); in 30 min after the final dose, smear the right ear of the mice with xylene, 0.05 ml/mouse, cause inflammation, sacrifice them in 15 min, shear away their left and right ears, punch down their left and right ear slice with 9 mm trephine, and weigh them, taking the difference of weights between left and right ear slices as the swelling rate. Judge the effects compared with those of the controlled groups.

[4] = test system: prostatitis caused by carrageenan; experiment: prostatitis caused by carrageenan (prostate weight, histopathology); type: in vivo, SD male rats; conditions: carrageenan rats
Description: […] Give the rats through gastric irrigation once per day, for 7 days (indomethacin, only once prior to operation), and begin the operation in 0.5 h after the final dose.
Conduct anesthesia for the rats, then fix them in supine position, shear off hair at their abdomen, and sterilized by iodine tinture; under sterilized condition, cut 1.5 cm at the center of their abdomen, expose the abdominal part of prostate, inject rats in (2)-(6) groups with 1% carrageenan saline, 0.02 mL/rat, with No. 4.5 syringe, immediately return the prostate to the abdominal cavity, add 1 drop of penicillin in the abdominal cavity, and immediately suture the abdominal cavity by two-layer ways. Replace carrageenan with saline 0.02 mL/rat, for rat in the controlled group (1), and conduct pseudo-operation. In 4 h after operation, sacrifice the rats, anatomize and separate each part of the prostate, weigh wet weight, and compare swelling extents between the dose groups and the model group. Take the abdominal part of the prostate of rats, fix with 10% formalin, dehydrate routinely, imbedded with paraffin, slice up, conduct HE staining, and observe pathological changes under a microscope.
Observation criteria for pathology of prostatic tissue from rats of each group: (1) Score of stroma swelling or blood vessel hyperemia: no stroma swelling or blood vessel hyperemia, 0; mild stroma swelling or blood vessel hyperemia, 1; moderate stroma swelling or blood vessel hyperemia, 2; severe stroma swelling or blood vessel hyperemia, 3; (2) Score of infiltration of inflammatory cells: no stroma inflammatory cells, 0; small amount of stroma inflammatory cells, 1; moderate amount of stroma inflammatory cells, 2; high amount of stroma inflammatory cells, 3; stroma diffuse inflammatory cells, 4.

[5] = test system: swelling of ear auricle caused by croton oil; experiment: swelling of ear auricle of mice caused by croton oil; type: in vivo; conditions: 10 mg/kg ig once, blank control 19.8 ± 2.9
Description: Randomly assign mice into 5 groups, 12 mice in each group, as follows: (1) Blank-controlled group: saline of equal volume, 0.8 mL/20 g; (2) Positive-controlled group: indomethacin 10 mg/kg; (3) High-dose group: 10 mg/mL EOB-f01, 400 mg/kg; (4) moderate-dose group: 5 mg/mL EOB-f01, 200 mg/kg; (5) Low-dose group: 2.5 mg/mL EOB-f01, 100 mg/kg. The animals received the administration through gastric irrigation (ig). once per day for 7 continuous days (for indomethacin, only once); in 1 h after the final dose, smear the right ear of the mice with 2% croton oil, 0.02 ml/mouse, cause inflammation, sacrifice them after 4 h, shear away their left and right ears, punch down their left and right ear slice with 9 mm trephine, and weigh them, taking the difference of weights between left and right ear slices as the swelling rate.

Compound | Prostate weights, Back part ([1]; model 7.8 ± 1.8) | Prostate weights, Abdominal part ([1]; model 11.3 ± 2.8) | Prostate weights, Side part ([1]; model 23.6 ± 6.2) | Prostate weights, Back part ([2]; blank control 4.2 ± 1.5) | Prostate weights, Abdominal part ([2]; blank control 6.7 ± 1.1) | Prostate weights, Side part ([2]; blank control 9.6 ± 3.3) | Seminal vesicle ([2]; organ weight, blank control 34.1 ± 11.3) | Elevator ani muscle ([2]; organ weight, blank control 42.5 ± 10.6) | Testis ([2]; organ weight, blank control 151.3 ± 28.2) | Swelling rate of ear auricle [3] | Prostate weights, Side part ([4]; 12 mg/kg ig once, model 73.3 ± 17.3) | Prostate weights, Back part ([4]; 12 mg/kg ig once, model 122.1 ± 23.3) | Prostate weights, Abdominal part ([4]; 12 mg/kg ig once, model 466.5 ± 79.1) | Degree of dilation or swelling of stroma blood vessels ([4]; score 0-3, abdominal part of prostate, 10 mg/kg, model 2.6 ± 0.5) | Degree of infiltration of neutrophils ([4]; score 0-4, abdominal part of prostate, 10 mg/kg, model 2.6 ± 1.3) | Swelling rate of ear auricle [5]
C[C@]12CC[C@@H]3c4ccc(O)cc4CC[C@H]3[C@@H]1CC[C@@H]2O [Estradiol, estradiol] | 5.1 ± 1.6 mg | 7.0 ± 1.7 mg | 15.1 ± 2.7 mg | 1.1 ± 0.9 mg | 1.7 ± 0.5 mg | 1.5 ± 1.3 mg | 7.3 ± 2.5 mg | 14.1 ± 3.3 mg | 58.0 ± 12.8 mg | – | – | – | – | – | – | –
COc1ccc2c(c1)c(CC(=O)O)c(C)n2C(=O)c1ccc(Cl)cc1 [Indomethacin, indomethacin] | – | – | – | – | – | – | – | – | – | 6.4 ± 2.3 mg | 62.0 ± 12.3 mg | 128.6 ± 20.9 mg | 358.1 ± 79.2 mg | 2.1 ± 2.0 | 2.2 ± 1.3 | 14.8 ± 5.1 mg
